Assays:
Thromboxane A2 receptor [1] = target: T1, Thromboxane A2 receptor (Homo sapiens, UniProt P21731); type: functional
T1 sequence (P21731 whole entry): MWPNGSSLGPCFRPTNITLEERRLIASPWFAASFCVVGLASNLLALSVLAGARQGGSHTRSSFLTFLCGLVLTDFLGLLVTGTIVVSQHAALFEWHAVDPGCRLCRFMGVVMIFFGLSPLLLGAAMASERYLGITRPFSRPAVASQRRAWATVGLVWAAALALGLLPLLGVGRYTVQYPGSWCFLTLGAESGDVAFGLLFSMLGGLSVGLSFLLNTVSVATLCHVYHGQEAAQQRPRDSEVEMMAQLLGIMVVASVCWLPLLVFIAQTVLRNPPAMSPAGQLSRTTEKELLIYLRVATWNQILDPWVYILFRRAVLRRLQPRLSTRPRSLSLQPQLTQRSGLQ

Thromboxane A2 receptor [2] = target: T1, Thromboxane A2 receptor; type: functional, cell-based
[3] = target: T2, Nuclear receptor subfamily 1 group I member 3 (Homo sapiens, UniProt Q14994); type: functional
T2 sequence (Q14994 whole entry): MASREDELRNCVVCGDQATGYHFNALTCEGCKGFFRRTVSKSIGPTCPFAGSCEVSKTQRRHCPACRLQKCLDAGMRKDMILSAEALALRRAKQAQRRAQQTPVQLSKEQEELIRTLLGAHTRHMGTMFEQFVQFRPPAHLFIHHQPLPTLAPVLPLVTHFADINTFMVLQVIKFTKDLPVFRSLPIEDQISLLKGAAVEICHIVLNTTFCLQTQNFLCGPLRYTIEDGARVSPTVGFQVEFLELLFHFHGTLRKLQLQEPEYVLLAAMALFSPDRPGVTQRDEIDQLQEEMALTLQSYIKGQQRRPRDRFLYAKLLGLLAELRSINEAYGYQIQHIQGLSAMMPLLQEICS

Bile acid receptor [4] = target: T3, Bile acid receptor (Homo sapiens, UniProt Q96RI1); type: functional
T3 sequence (Q96RI1 whole entry): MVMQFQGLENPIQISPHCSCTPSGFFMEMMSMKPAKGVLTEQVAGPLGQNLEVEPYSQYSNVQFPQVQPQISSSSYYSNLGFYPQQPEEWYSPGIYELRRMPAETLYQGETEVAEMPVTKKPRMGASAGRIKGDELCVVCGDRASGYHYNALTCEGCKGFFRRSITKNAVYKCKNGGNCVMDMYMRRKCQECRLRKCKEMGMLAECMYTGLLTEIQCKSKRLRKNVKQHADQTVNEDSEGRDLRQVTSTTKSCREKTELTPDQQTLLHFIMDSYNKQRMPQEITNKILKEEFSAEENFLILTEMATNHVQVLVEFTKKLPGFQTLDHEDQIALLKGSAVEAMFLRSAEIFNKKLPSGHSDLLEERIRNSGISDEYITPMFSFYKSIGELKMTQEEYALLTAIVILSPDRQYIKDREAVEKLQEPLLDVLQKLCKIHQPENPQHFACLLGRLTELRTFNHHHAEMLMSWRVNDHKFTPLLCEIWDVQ

[5] = target: T4, Oxysterols receptor LXR-alpha (Homo sapiens, UniProt Q13133); type: functional
T4 sequence (Q13133 whole entry): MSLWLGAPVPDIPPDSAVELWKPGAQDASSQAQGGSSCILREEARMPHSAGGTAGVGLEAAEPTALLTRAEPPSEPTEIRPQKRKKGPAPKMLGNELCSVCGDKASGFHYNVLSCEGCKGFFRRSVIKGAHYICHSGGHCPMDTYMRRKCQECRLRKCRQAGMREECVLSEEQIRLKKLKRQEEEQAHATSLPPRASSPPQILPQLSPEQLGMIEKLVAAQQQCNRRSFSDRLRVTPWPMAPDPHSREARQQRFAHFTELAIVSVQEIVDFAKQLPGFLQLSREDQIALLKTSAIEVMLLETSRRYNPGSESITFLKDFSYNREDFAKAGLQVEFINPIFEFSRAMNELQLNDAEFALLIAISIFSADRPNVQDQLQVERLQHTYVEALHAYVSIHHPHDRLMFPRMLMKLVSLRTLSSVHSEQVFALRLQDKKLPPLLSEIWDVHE

Bile acid receptor [6] = target: T3, Bile acid receptor; type: functional; remark: listed apart in the source
[7] = target: T5, Oxysterols receptor LXR-beta (Homo sapiens, UniProt P55055); type: functional
T5 sequence (P55055 whole entry): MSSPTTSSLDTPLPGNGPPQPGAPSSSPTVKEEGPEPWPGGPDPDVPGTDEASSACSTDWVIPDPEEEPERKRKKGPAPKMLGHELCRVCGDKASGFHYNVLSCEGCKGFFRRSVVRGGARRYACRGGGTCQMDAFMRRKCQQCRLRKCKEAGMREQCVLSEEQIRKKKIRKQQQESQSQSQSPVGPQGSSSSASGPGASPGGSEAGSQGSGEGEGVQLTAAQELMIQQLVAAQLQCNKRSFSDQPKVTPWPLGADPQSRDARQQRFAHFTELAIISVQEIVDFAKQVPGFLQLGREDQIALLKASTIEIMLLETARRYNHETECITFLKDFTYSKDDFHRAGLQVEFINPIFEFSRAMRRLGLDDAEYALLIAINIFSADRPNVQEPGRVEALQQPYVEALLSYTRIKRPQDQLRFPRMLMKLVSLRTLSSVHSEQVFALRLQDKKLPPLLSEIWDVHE

[8] = target: T6, Retinoic acid receptor alpha (Homo sapiens, UniProt P10276); type: functional, cell-based
T6 sequence (P10276 whole entry): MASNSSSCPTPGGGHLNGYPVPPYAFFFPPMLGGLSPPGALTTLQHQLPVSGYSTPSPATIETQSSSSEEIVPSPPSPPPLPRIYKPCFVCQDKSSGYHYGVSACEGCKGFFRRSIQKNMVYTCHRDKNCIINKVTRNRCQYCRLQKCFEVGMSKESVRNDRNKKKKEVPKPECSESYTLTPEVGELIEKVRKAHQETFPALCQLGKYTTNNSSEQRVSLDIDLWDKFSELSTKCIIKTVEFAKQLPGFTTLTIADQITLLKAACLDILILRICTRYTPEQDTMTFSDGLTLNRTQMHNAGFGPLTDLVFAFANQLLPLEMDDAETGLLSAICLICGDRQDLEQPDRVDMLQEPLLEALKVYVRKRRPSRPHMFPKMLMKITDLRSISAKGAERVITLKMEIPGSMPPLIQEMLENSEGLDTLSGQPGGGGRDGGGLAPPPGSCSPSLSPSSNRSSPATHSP

[9] = target: T4, Oxysterols receptor LXR-alpha; type: functional; remark: listed apart in the source
[10] = target: T5, Oxysterols receptor LXR-beta; type: functional; remark: listed apart in the source
Further: assay procedure not described here.

SMILES	AC50 (Thromboxane A2 receptor [1]) [µM]	AC50 (Thromboxane A2 receptor [2]) [µM]	AC50 [3] [µM]	AC50 (Bile acid receptor [4]) [µM]	AC50 [5] [µM]	AC50 (Bile acid receptor [6]) [µM]	AC50 [7] [µM]	AC50 [8] [µM]	AC50 [9] [µM]	AC50 [10] [µM]
N=C(N)NC(=O)Cc1c(Cl)cccc1Cl [GUANFACINE]	> 30	> 30	–	–	–	–	–	–	–	–
CC(=O)N1CCN(c2ccc(OCC3COC(Cn4ccnc4)(c4ccc(Cl)cc4Cl)O3)cc2)CC1 (stereo not given) [KETOCONAZOLE]	–	–	5	> 10	> 30	> 30	4.7	> 30	> 10	> 30

— ChEMBL document CHEMBL5291721, “A preclinical secondary pharmacology resource illuminates target-adverse drug reaction associations of marketed drugs” (Nat Commun, 2023)
